Laboratory results from PubChem BioAssay (NCI).
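A five-concentration, 48-hour dose response in 96-well plates underlies each endpoint, interpolated linearly between surrounding concentrations. GI50 = concentration required for 50% inhibition of growth. TGI marks complete inhibition of growth.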

What was measured:
Assay in all cases: DTP human tumour cell line panel, 48 h
SK-MEL-2 melanoma = system: SK-MEL-2 melanoma
NCI-H23 lung = system: NCI-H23 lung
ACHN renal = system: ACHN renal
TK-10 renal = system: TK-10 renal
DU-145 prostate = system: DU-145 prostate
SF-539 CNS = system: SF-539 CNS
HCT-116 colon = system: HCT-116 colon
PC-3 prostate = system: PC-3 prostate
MALME-3M melanoma = system: MALME-3M melanoma
M14 melanoma = system: M14 melanoma
UACC-257 melanoma = system: UACC-257 melanoma
UO-31 renal = system: UO-31 renal
HT29 colon = system: HT29 colon
MCF7 breast = system: MCF7 breast
SK-OV-3 ovarian = system: SK-OV-3 ovarian
SR leukemia = system: SR leukemia
HOP-62 NSCLC = system: HOP-62 NSCLC
SN12C renal = system: SN12C renal
OVCAR-4 ovarian = system: OVCAR-4 ovarian
IGROV1 ovarian = system: IGROV1 ovarian
LOX IMVI melanoma = system: LOX IMVI melanoma
HOP-92 NSCLC = system: HOP-92 NSCLC
SNB-75 CNS = system: SNB-75 CNS
MDA-MB-468 breast = system: MDA-MB-468 breast
OVCAR-3 ovarian = system: OVCAR-3 ovarian
MDA-MB-231 breast = system: MDA-MB-231 breast
CAKI-1 renal = system: CAKI-1 renal
OVCAR-8 ovarian = system: OVCAR-8 ovarian
MDA-MB-435 = system: MDA-MB-435
NCI/ADR-RES ovarian = system: NCI/ADR-RES ovarian
NCI-H522 lung = system: NCI-H522 lung
SNB-19 CNS = system: SNB-19 CNS
HCT-15 colon = system: HCT-15 colon
OVCAR-5 ovarian = system: OVCAR-5 ovarian
RPMI-8226 leukemia = system: RPMI-8226 leukemia
CCRF-CEM leukemia = system: CCRF-CEM leukemia
MOLT-4 leukemia = system: MOLT-4 leukemia
A549 NSCLC = system: A549 NSCLC
SF-268 CNS = system: SF-268 CNS
A498 renal = system: A498 renal
NCI-H460 lung = system: NCI-H460 lung
EKVX NSCLC = system: EKVX NSCLC
SK-MEL-5 melanoma = system: SK-MEL-5 melanoma
UACC-62 melanoma = system: UACC-62 melanoma
T-47D breast = system: T-47D breast
SK-MEL-28 melanoma = system: SK-MEL-28 melanoma
COLO 205 colon = system: COLO 205 colon
RXF 393 renal = system: RXF 393 renal
HCC-2998 colon = system: HCC-2998 colon
SF-295 CNS = system: SF-295 CNS
HL-60(TB) leukemia = system: HL-60(TB) leukemia
BT-549 breast = system: BT-549 breast
SW-620 colon = system: SW-620 colon
U251 CNS = system: U251 CNS
NCI-H226 lung = system: NCI-H226 lung
K-562 leukemia = system: K-562 leukemia
KM12 colon = system: KM12 colon
HS 578T breast = system: HS 578T breast
786-0 renal = system: 786-0 renal

Cc1ccc(O)cc1Nc1nc(SCCN2CCOCC2)nc2c1cnn2CC(Cl)c1ccc(Br)cc1 (stereo not drawn)
GI50 (SK-MEL-2 melanoma): 11.2 µM | TGI (SK-MEL-2 melanoma): 24.5 µM | GI50 (NCI-H23 lung): 6.21 µM | TGI (NCI-H23 lung): 19.5 µM | GI50 (ACHN renal): 2.21 µM | TGI (ACHN renal): 15.4 µM | GI50 (TK-10 renal): 15.8 µM | TGI (TK-10 renal): 32.3 µM | GI50 (DU-145 prostate): 8.92 µM | TGI (DU-145 prostate): > 100 µM | GI50 (SF-539 CNS): 3.05 µM | TGI (SF-539 CNS): 13.9 µM | GI50 (HCT-116 colon): 3.46 µM | TGI (HCT-116 colon): 13.3 µM | GI50 (PC-3 prostate): 4.98 µM | TGI (PC-3 prostate): 46.1 µM | GI50 (MALME-3M melanoma): 3.71 µM | TGI (MALME-3M melanoma): 16.6 µM | GI50 (M14 melanoma): 2.85 µM | TGI (M14 melanoma): 15.2 µM | GI50 (UACC-257 melanoma): 9.87 µM | TGI (UACC-257 melanoma): 24.7 µM | GI50 (UO-31 renal): 2.25 µM | TGI (UO-31 renal): 31.5 µM | GI50 (HT29 colon): 3.36 µM | TGI (HT29 colon): 13.6 µM | GI50 (MCF7 breast): 3.4 µM | TGI (MCF7 breast): 17.3 µM | GI50 (SK-OV-3 ovarian): 13.6 µM | TGI (SK-OV-3 ovarian): 73.4 µM | GI50 (SR leukemia): 2.34 µM | TGI (SR leukemia): 17.5 µM | GI50 (HOP-62 NSCLC): 4.41 µM | TGI (HOP-62 NSCLC): 30.2 µM | GI50 (SN12C renal): 2.12 µM | TGI (SN12C renal): 13.3 µM | GI50 (OVCAR-4 ovarian): 6.84 µM | TGI (OVCAR-4 ovarian): > 100 µM | GI50 (IGROV1 ovarian): 2.06 µM | TGI (IGROV1 ovarian): 6.08 µM | GI50 (LOX IMVI melanoma): 1.52 µM | TGI (LOX IMVI melanoma): 3.49 µM | GI50 (HOP-92 NSCLC): 2.06 µM | TGI (HOP-92 NSCLC): 8.12 µM | GI50 (SNB-75 CNS): 1.24 µM | TGI (SNB-75 CNS): 5.11 µM | GI50 (MDA-MB-468 breast): 1.84 µM | TGI (MDA-MB-468 breast): 4.69 µM | GI50 (OVCAR-3 ovarian): 11 µM | TGI (OVCAR-3 ovarian): 64.9 µM | GI50 (MDA-MB-231 breast): 2.5 µM | TGI (MDA-MB-231 breast): 14.3 µM | GI50 (CAKI-1 renal): 3.53 µM | TGI (CAKI-1 renal): 33.1 µM | GI50 (OVCAR-8 ovarian): 4.45 µM | TGI (OVCAR-8 ovarian): 21.2 µM | GI50 (MDA-MB-435): 4.72 µM | TGI (MDA-MB-435): 21.5 µM | GI50 (NCI/ADR-RES ovarian): 3.13 µM | TGI (NCI/ADR-RES ovarian): 17.3 µM | GI50 (NCI-H522 lung): 2.87 µM | TGI (NCI-H522 lung): 16.5 µM | GI50 (SNB-19 CNS): 5.93 µM | TGI (SNB-19 CNS): 43.4 µM | GI50 (HCT-15 colon): 2.82 µM | TGI (HCT-15 colon): 15.8 µM | GI50 (OVCAR-5 ovarian): 3.96 µM | TGI (OVCAR-5 ovarian): 18.9 µM | GI50 (RPMI-8226 leukemia): 4.37 µM | TGI (RPMI-8226 leukemia): 28.4 µM | GI50 (CCRF-CEM leukemia): 4.03 µM | TGI (CCRF-CEM leukemia): 39.1 µM | GI50 (MOLT-4 leukemia): 2.65 µM | TGI (MOLT-4 leukemia): 14.5 µM | GI50 (A549 NSCLC): 3.18 µM | TGI (A549 NSCLC): 18.5 µM | GI50 (SF-268 CNS): 7.04 µM | TGI (SF-268 CNS): > 100 µM | GI50 (A498 renal): 6.88 µM | TGI (A498 renal): 21.7 µM | GI50 (NCI-H460 lung): 4.26 µM | TGI (NCI-H460 lung): 21.8 µM | GI50 (EKVX NSCLC): 3.93 µM | TGI (EKVX NSCLC): 60.4 µM | GI50 (SK-MEL-5 melanoma): 4.17 µM | TGI (SK-MEL-5 melanoma): 15.9 µM | GI50 (UACC-62 melanoma): 3.05 µM | TGI (UACC-62 melanoma): 15.5 µM | GI50 (T-47D breast): 2.14 µM | TGI (T-47D breast): > 100 µM | GI50 (SK-MEL-28 melanoma): 4.21 µM | TGI (SK-MEL-28 melanoma): 17.4 µM | GI50 (COLO 205 colon): 17.6 µM | TGI (COLO 205 colon): 42.2 µM | GI50 (RXF 393 renal): 0.282 µM | TGI (RXF 393 renal): 3.71 µM | GI50 (HCC-2998 colon): 3.93 µM | TGI (HCC-2998 colon): 15.2 µM | GI50 (SF-295 CNS): 2.36 µM | TGI (SF-295 CNS): 12 µM | GI50 (HL-60(TB) leukemia): 5.18 µM | TGI (HL-60(TB) leukemia): 28.4 µM | GI50 (BT-549 breast): 10.1 µM | TGI (BT-549 breast): 23.2 µM | GI50 (SW-620 colon): 14.6 µM | TGI (SW-620 colon): 78.1 µM | GI50 (U251 CNS): 4.85 µM | TGI (U251 CNS): 17.9 µM | GI50 (NCI-H226 lung): 3.39 µM | TGI (NCI-H226 lung): 20.4 µM | GI50 (K-562 leukemia): 0.0575 µM | TGI (K-562 leukemia): 2.73 µM | GI50 (KM12 colon): 7.55 µM | TGI (KM12 colon): 29.8 µM | GI50 (HS 578T breast): 0.832 µM | TGI (HS 578T breast): 5.67 µM | GI50 (786-0 renal): 6.22 µM | TGI (786-0 renal): 25.4 µM
